For one series, the system named is Lu1, lung cancer. As to the kind of experiment: In vitro cytotoxicity, human tumor panel: Lu1. The settings on record: Homo sapiens, read-out: ED50 Lu1. Format: cell-based. How it is done:
(§1) Cytotoxicity assay. Compounds 1–9 were evaluated for cytotoxic activity against a panel of human cancer cell lines, including KB-V1 in the presence and absence of VLB, according to an established protocol (68).

In a further series the test system is Col2, colon cancer. Put plainly: In vitro cytotoxicity, human tumor panel: Col2. Format: cell-based. Particulars: Homo sapiens, read-out: ED50 Col2. How it is done:
as §1

Series [1] concerns KB, oral epidermoid carcinoma. As to the kind of experiment: In vitro cytotoxicity, human tumor panel: KB. Format: cell-based. Particulars: Homo sapiens, read-out: ED50 KB. How it is done: as §1
The test system of series [2] is LNCaP, hormone-dependent prostate cancer. Put plainly: In vitro cytotoxicity, human tumor panel: LNCaP. Format: cell-based. Particulars: Homo sapiens, LNCaP, read-out: ED50 LNCaP. How it is done:
as §1

Series [3] relates to SKOV3 (ovarian adenocarcinoma). Put plainly: Cytotoxicity in ovarian adenocarcinoma SKOV3 (pGp -ve). Format: cell-based. Particulars: Homo sapiens, SK-OV-3, read-out: IC50 SKOV3 (pGp − ve). How it is done: as §1
The test system of the next series is KB-8-5 cells. As to the kind of experiment: Reversal of MDR, cell survival assay: KB-8-5 with or without colchicine. Format: cell-based, human. The settings on record: for Ratio of IC50 values KB-3/[KB-8-5 (+)] / Ratio of IC50 values [KB-8-5 (−)]/[KB-8-5 (+)]: colchicine 10 ng/ml. How it is done:
Cytotoxic potential. The cytotoxic potential of test substances with KB-3, KB-V1 and KB-8-5 cells was determined as described previously (24). Briefly, various concentrations of test compounds (dissolved in 10 μl of 10% DMSO) were transferred to 96-well plates, and 190 μl aliquots of cell suspensions (5×10^4 cells/ml) were added to each well. The plates then were incubated for 72 hours at 37° C. (100% humidity with a 5% CO2 atmosphere in air), and 100 μl of cold 20% aqueous trichloroacetic acid were added to the growth medium in each well to fix the cells. The cultures were incubated at 4° C. for 30 minutes, washed, air-dried, stained with sulforhodamine B solution, and washed with 1% acetic acid. […] In each case, a zero-day control was performed by adding an equivalent number of cells to several wells and incubating at 37° C. for 30 minutes, and processing as described above. Optical density values obtained with the zero-day control were subtracted, and cell survival, relative to control (solvent-treated) cultures, was calculated. The cytotoxic potential of the compounds with CEM and CEM/VLB100 cells was determined as described by Beck et al. (30). Cells were grown in 24-well plates at a density of 5–6×10^5 cells/ml. At 48 hours, the cell number was determined using a Coulter Counter, with a channelizer to distinguish cells from debris.

The target of series [4] is T1, Pgp (KB-V1 cell membrane vesicles) (Homo sapiens, UniProt P08183).
T1 construct: Cell membrane vesicles were prepared from KB-V1 cells following literature procedures; endogenous in cells; host or cells: KB-V1 cells (vinblastine-selected multidrug-resistant KB line); plasma membrane vesicles
Put plainly: [3H]Vinblastine accumulation with KB-V1 cell membrane vesicles. Format: binding. How it is done: [^3H]Vinblastine accumulation with KB-V1 vesicles. Cell membrane vesicles were prepared from KB-V1 cells following literature procedures (31, 32) with some modifications. Medium was removed from KB-V1 cells in log growth phase (about 80% confluence) and the cells were rinsed with ice-cold PBS followed by ice-cold PBS containing 2 mM EDTA. Aprotinin (1 mg/ml) was then added, and, after a 10 minutes incubation at room temperature, the cells were harvested by gentle aspiration with a serological pipette and collected by centrifugation (100×g for 5 minutes). The cells were suspended in 0.25 M sucrose buffer (0.01 M Tris-HCl, pH 7.5, containing 0.25 M sucrose, 0.2 mM CaCl2, 1 mM EDTA) and homogenized with a Polytron at 2,500 rpm for 30 seconds. […] The homogenate then was diluted with four volumes of 0.025 M sucrose solution (0.01 M Tris-HCl, pH 7.5, containing 0.025 M sucrose) and centrifuged (1,000×g for 10 minutes). […] The interface (about 5 ml) was collected and diluted with four volumes of 0.25 M sucrose, 0.01 M Tris-HCl, pH 7.5, and centrifuged at 100,000×g for 1 hour. The resulting vesicle pellet was suspended in PBS containing 1 mM phenylmethylsulfonyl fluoride, using a 25-gauge needle, and stored at −80° C. Protein content was determined using a bicinchoninic acid protein assay kit with BSA as a standard (33).
Vinblastine accumulation with membrane vesicles assays were performed in 96-well plates as described previously (23, 24). […] Various concentrations of test samples, dissolved in 5 μl of DMSO, were then added (final volume, 100 μl), and incubations were conducted at ambient temperature for 20 minutes. For kinetic studies, various concentrations of [^3H]vinblastine were used. Reactions were terminated by aspirating the contents of each well onto a glass filter filter (printed type A filtermats, Wallac) using a 96-well harvester (Harvester 96, Tomtec). […] Nonspecific binding was determined by performing similar incubations with reaction mixtures containing a 1,000-fold excess of unlabeled vinblastine. Nonspecific binding was subtracted from all total-binding data to yield specific binding.

The test system of another series is KB-V1 cells. Put plainly: [3H]Vinblastine accumulation with intact cells. The format is cell-based, human. Particulars: modulator 0–40 μM. How it is done:
[^3H]Vinblastine accumulation with intact cells. Measurement of the accumulation of [^3H]vinblastine in cell monolayers was performed by the method of Fojo et al. (34) with some modifications. Studies were performed with 24-well plates. In preparing the cell monolayers, 2 ml of a cell suspension containing 2.5×10^5 cells per ml of incubation medium (DMEM with 10% calf serum) were added to each well. Control wells contained 2 ml of assay medium. […] Monolayers were washed three times with cold PBS, dried by inversion, and the cells were treated with trypsin. Cell suspensions were then transferred to vials containing 3 ml of scintillation solution (CytoScint™, ICN), mixed vigorously, and counted. The quantity of [^3H]vinblastine associated with incubations containing cells was corrected by subtracting the counts associated with incubations not containing cells.

The subject of the next series is MDR1 (Pgp) expression. As to the kind of experiment: Western blot analysis of MDR1 expression. Format: cell-based, human. Particulars: KB-V1 and CEM/VLB100 cells, 72 hours; pervilleine A up to 45 μM, verapamil up to 44 μM. How it is done:
Western blot analysis of MDR1 expression. […] Cells (7.5×10^5 cells as starting cell amount) were harvested using SDS lysis buffer [20 mM Tris-HCl (pH 6.8) containing 0.4% SDS (w/v), 5% glycerol (v/v), 0.006% bromophenol blue, 2% β-mer-captoethanol], and lysates were boiled for 10 minutes and stored at −20° C. Aliquots of lysates were used for protein determinations (bicinchoninic acid protein assay kit with BSA as standard), and equivalent amounts of protein were electrophoresed by SDS-PAGE with precast 7.5% Tris-glycine acrylamide gels (Novex, San Diego, Calif.). Following transfer to polyvinylidene difluoride membranes, nonspecific binding sites were blocked with 5% nonfat dry milk. Blotting was performed with rabbit polyclonal antibody mdr (Ab-1) (Oncogene Research Products, Inc.) and analyzed by streptavidin horseradish peroxidase-conjugated secondary antibody (Amersham Life Science) and visualized using a ECL western blotting detection system (Amersham Life Science).

This is an account of results in patent US6989396B2, “Tropane alkaloid multidrug resistance inhibitors from Erythroxylum pervillei and use of the same” (The Board of Trustees of the University of Illinois, priority 2001, dated 2006).

Where “and” joins values, the source holds several entries; their conditions need not be identical. Equal values may be shown once. Entries after “also recorded” stand apart in the source; their conditions may differ. Marks after values point to notes of the source that are not given here. A value given as a limit tells only on which side of the number the result lay.

T1 sequence (P08183 whole entry): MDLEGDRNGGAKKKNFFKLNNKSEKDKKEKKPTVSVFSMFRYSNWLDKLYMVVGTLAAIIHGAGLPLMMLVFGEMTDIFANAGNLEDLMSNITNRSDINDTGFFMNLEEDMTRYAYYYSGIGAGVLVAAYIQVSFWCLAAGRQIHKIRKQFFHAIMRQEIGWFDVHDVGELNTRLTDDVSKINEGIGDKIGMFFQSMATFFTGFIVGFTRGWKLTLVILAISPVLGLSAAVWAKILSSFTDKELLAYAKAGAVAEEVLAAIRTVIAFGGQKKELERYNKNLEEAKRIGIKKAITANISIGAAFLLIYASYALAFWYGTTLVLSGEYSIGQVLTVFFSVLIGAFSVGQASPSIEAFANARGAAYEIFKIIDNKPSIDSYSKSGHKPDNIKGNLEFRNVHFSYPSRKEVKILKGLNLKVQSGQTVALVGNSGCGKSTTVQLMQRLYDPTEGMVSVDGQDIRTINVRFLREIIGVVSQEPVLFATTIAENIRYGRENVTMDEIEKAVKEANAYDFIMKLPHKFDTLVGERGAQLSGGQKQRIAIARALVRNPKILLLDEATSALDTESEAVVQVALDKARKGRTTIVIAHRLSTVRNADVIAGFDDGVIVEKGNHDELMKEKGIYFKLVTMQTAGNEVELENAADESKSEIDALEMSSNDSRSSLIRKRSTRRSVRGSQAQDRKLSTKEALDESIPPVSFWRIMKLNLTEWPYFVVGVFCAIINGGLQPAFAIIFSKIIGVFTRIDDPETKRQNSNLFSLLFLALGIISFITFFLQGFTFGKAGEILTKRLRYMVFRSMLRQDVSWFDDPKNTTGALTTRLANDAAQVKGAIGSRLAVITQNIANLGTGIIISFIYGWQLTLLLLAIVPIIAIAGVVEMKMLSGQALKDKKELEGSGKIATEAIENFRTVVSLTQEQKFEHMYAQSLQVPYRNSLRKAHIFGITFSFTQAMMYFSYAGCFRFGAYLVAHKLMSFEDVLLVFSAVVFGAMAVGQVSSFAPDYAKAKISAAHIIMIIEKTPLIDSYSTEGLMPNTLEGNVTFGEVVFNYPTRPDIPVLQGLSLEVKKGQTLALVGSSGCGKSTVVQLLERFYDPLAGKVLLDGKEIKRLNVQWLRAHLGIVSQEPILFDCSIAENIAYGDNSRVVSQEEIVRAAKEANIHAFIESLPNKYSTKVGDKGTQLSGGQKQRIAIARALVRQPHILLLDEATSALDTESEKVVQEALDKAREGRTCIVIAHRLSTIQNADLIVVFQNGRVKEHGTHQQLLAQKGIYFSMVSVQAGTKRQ

Take `COc1cc(C=CC(=O)O[C@H]2[C@@H](O)[C@@H]3C[C@H](OC(=O)c4cc(OC)c(OC)c(OC)c4)C[C@H]2N3C)cc(OC)c1OC` [Compound 3, 3α-(3,4,5-trimethoxybenzoyloxy)-6β-(3,4,5-trimethoxycinnamoyloxy)-7β-hydroxytropane]: the IC50 was more than 20 µg/mL in the series on Lu1, lung cancer; more than 20 µg/mL in the series on Col2, colon cancer; more than 20 µg/mL in series [1]; more than 20 µg/mL in series [2]; more than 10 µM in [3]; 14 µM with KB-8-5 cells (Homo sapiens). The molecule also returned an IC50 in series [4] (0.16 μM [3H]vinblastine, 0.5 mM ATP, 20 minutes, ambient temperature) of 3.84 µM. Besides, the “Ratio of IC50 values KB-3/[KB-8-5 (+)]” value in the series on KB-8-5 cells (listed as Pervilleine A) is recorded as 40.3^d; in the series with KB-8-5 cells (listed as pervilleine A), 40.3. In addition, the entries for the “Ratio of IC50 values [KB-8-5 (−)]/[KB-8-5 (+)]” value in the series on KB-8-5 cells (listed as Pervilleine A) and in the series with KB-8-5 cells (listed as pervilleine A) were 23.3^d and 23.3, respectively. Moreover, the “fold reduction of [3H]vinblastine accumulation” value in series [4] (0–100 μM, 0.16 μM [3H]vinblastine) is on record as “about 65 fold”. The Ki in series [4] (double-reciprocal plots, 0.015–0.16 μM [3H]vinblastine, read-out: Ki, competitive with respect to vinblastine binding) was ~7.3 µM and 7.3 µM. Moreover, the “mode of inhibition of vinblastine accumulation” value in series [4] (kinetic analysis, double-reciprocal plots) is reported as “competitive inhibition”. In the series on KB-V1 cells, the “fold increase of [3H]vinblastine accumulation” value is given as “about 27 fold”. The “effect on levels of Pgp (MDR1 protein expression)” value with MDR1 (Pgp) expression is listed as “did not alter expression levels; also recorded: did not significantly alter; also recorded: did not significantly affect”.
